The record followed here is patent publication US11414416B1, “Compounds and uses thereof” (Foghorn Therapeutics Inc., priority 2019, dated 2022).

Chain of Nanoluciferase-BRD9 fusion protein (Q9H8M2 whole entry, the tested form may be a part): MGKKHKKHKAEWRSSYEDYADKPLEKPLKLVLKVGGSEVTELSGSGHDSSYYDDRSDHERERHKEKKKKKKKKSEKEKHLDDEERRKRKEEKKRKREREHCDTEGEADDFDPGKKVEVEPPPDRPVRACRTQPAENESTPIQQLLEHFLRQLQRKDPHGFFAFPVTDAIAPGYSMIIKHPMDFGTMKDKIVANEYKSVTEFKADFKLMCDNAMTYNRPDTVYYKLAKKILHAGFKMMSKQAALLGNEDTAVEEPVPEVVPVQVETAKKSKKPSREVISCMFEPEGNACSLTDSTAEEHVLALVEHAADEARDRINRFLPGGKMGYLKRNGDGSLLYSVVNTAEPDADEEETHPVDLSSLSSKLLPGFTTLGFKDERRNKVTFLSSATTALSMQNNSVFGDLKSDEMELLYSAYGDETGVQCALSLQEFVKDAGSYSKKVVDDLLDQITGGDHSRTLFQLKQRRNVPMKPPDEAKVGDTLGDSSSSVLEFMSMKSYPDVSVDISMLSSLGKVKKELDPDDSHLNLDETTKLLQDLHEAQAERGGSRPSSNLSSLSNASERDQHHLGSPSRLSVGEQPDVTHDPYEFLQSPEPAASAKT

One test concerns the target Nanoluciferase-BRD9 fusion protein (Homo sapiens (Human), UniProt Q9H8M2). Description: SYO1 BRD9 NanoLuc degradation assay. The class given is cell-based. The conditions noted are these: Table 5A; SYO-1 cells expressing 3×FLAG-NLuc-BRD9, 6 hours; read-out: SYO1 BRD9-NanoLuc degradation IC50. The procedure, abridged:
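Degradation was read as loss of nanoluciferase signal (Nano-Glo) after 6 h compound exposure in a stable SYO-1 line carrying 3×FLAG-NLuc-BRD9 (8000 cells/well). Normalised between DMSO (high) and a 1 μM known BRD9 degrader (low).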
Take `COc1cc(-c2cn(C)c(=O)c3cnccc23)cc(OC)c1CN1CCC2(CC1)CN(CCCCOc1ccc3c(c1)C(=O)N(C1CCC(=O)NC1=O)C3=O)CCO2` (stereo not shown) [Compound D50, 5-(4-(9-(2,6-dimethoxy-4-(2-methyl-1-oxo-1,2-dihydro-2,7-naphthyridin-4-yl)benzyl)-1-oxa-4,9-diazaspiro[5.5]undecan-4-yl)butoxy)-2-(2,6-dioxopiperidin-3-yl)isoindoline-1,3-dione]: the DC50 was less than 10 nM. For `COc1cc(-c2cn(C)c(=O)c3cnccc23)cc(OC)c1CN(C)C1CCN(CCOc2ccc3c(c2)C(=O)N(C2CCC(=O)NC2=O)C3=O)CC1` (stereo not shown) [Compound D51, 5-[2-[4-([[2,6-dimethoxy-4-(2-methyl-1-oxo-2,7-naphthyridin-4-yl)phenyl]methyl] (methyl)amino)piperidin-1-yl]ethoxy]-2-(2,6-dioxopiperidin-3-yl)isoindole-1,3-dione; formic acid], the DC50 was less than 10 nM. On the same count and under the same terms, to `COc1cc(-c2cn(C)c(=O)c3cnccc23)cc(OC)c1CN1CC(CC(=O)N2CCC3(CC2)CC(Oc2ccc4c(c2)C(=O)N(C2CCC(=O)NC2=O)C4=O)C3)C1` (stereo not shown) [Compound D80] belongs less than 10 nM; to `COc1cc(-c2cn(C)c(=O)c3cnccc23)cc(OC)c1CN1CC2(CC(CCOc3ccc4c(c3)C(=O)N(C3CCC(=O)NC3=O)C4=O)C2)C1` (stereo not shown) [Compound D48, 5-(2-(2-(2,6-dimethoxy-4-(2-methyl-1-oxo-1,2-dihydro-2,7-naphthyridin-4-yl)benzyl)-2-azaspiro[3.3]heptan-6-yl)ethoxy)-2-(2,6-dioxopiperidin-3-yl)isoindoline-1,3-dione formic acid], 10 to 100 nM; to `COc1cc(-c2cn(C)c(=O)c3cnccc23)cc(OC)c1CN1CC2(CC(C(=O)NCCCCCCNc3cccc4c3C(=O)N(C3CCC(=O)NC3=O)C4=O)C2)C1` (stereo not shown) [Compound D21], more than 1000 nM.

The test is the same for the next values; noted with them: Table 5B; SYO-1 cells expressing 3×FLAG-NLuc-BRD9, 6 hours; read-out: SYO1 BRD9-NanoLuc degradation IC50.
With `COc1cc(-c2cn(C)c(=O)c3cnccc23)cc(OC)c1CN(C)CCOCCn1cc(CN2CC(Oc3ccc4c(c3)C(=O)N(C3CCC(=O)NC3=O)C4=O)C2)nn1` (stereo not shown) [Compound D294], the DC50 lay in the range of 100 to 1000 nM. For `COc1cc(-c2ccc(=O)n(C)c2)cc(OC)c1CN1CCN(c2ccc3c(c2)C(=O)N(C2CCC(=O)NC2=O)C3=O)CC1` (stereo not shown) [Compound D344], the DC50 is less than 10 nM.

For the compound `COc1cc(-c2cn(C)c(=O)c3cnccc23)cc(OC)c1CN1CCC2C(C1)CN2CC#Cc1ccc2c(c1)C(=O)N(C1CCC(=O)NC1=O)C2=O` (stereo not shown) [Compound D236], the DC50 is less than 10 nM.

Consider `COc1cc(-c2cn(C)c(=O)c3cnccc23)cc(OC)c1CN(C)C(=O)CCCCN1CCC2(CCN(c3ccc4c(c3)C(=O)N(C3CCC(=O)NC3=O)C4=O)C2)C1` (stereo not shown) [Compound D188], for which the DC50 is less than 10 nM. `COc1cc(-c2cc(C)c(F)c3ccccc23)cc(OC)c1CN1CCC(CN2CCC3(CC2)CC(Oc2ccc4c(c2)C(=O)N(C2CCC(=O)NC2=O)C4=O)C3)CC1` (stereo not shown) [DD10]: the DC50 lay within 100 to 1000 nM.

For `COc1cc(-c2cn(C)c(=O)c3cnn(C)c23)cc(OC)c1CN1CC(CN2CCC3(CC2)CN(c2ccc4c(c2)CN(C2CCC(=O)NC2=O)C4=O)C3)C1` (stereo not shown) [Compound D369], the DC50 was less than 10 nM. Same read-out and setting: to `COc1cc(-c2cn(C)c(=O)c3cnccc23)cc(OC)c1CN(C)CCCCN1CCC2(CC1)CN(c1ccc3c(c1)C(=O)N(C1CCC(=O)NC1=O)C3=O)C2` (stereo not shown) [Compound D222] belongs less than 10 nM; to `COc1cc(-c2cn(C)c(=O)c3cnccc23)cc(OC)c1CN1CC(CC(=O)N2CCC3(CCN(c4ccc5c(c4)C(=O)N(C4CCC(=O)NC4=O)C5=O)C3)C2)C1` (stereo not shown) [Compound D192], 100 to 1000 nM. The same measure, in the same setting: the result for `COc1cc(-c2cn(C)c(=O)c3cnccc23)cc(OC)c1Cn1cc(COC2CN(c3ccc4c(c3)C(=O)N(C3CCC(=O)NC3=O)C4=O)C2)nn1` (stereo not shown) [Compound D271] reads less than 10 nM. On the same count and under the same terms, to `COc1cc(-c2cn(C)c(=O)c3cnccc23)cc(OC)c1CN1CC(CC(=O)N[C@@H]2C[C@]23CCN(c2ccc4c(c2)C(=O)N(C2CCC(=O)NC2=O)C4=O)C3)C1` (stereo partly shown) [Compound D231] belongs 100 to 1000 nM; to `COc1cc(-c2cc(C(F)(F)F)c(=O)n(C)c2)cc(OC)c1CN1CCC(CCN2CCN(c3ccc4c(c3)C(=O)N(C3CCC(=O)NC3=O)C4=O)CC2)CC1` (stereo not shown) [Compound D328], less than 10 nM; to `COc1cc(-c2cn(C)c(=O)c3ccccc23)cc(OC)c1CN1CC(CN2CCC3(CC2)CN(c2ccc4c(c2)C(=O)N(C2CCC(=O)NC2=O)C4)C3)C1` (stereo not shown) [Compound D356], less than 10 nM. In the case of `COc1cc(-c2cn(C)c(=O)c3cnccc23)cc(OC)c1CN1CCC2(CC1)CCN(CCCC#Cc1ccc3c(c1)C(=O)N(C1CCC(=O)NC1=O)C3=O)C2` (stereo not shown) [Compound D213], the DC50 is less than 10 nM. Same read-out and setting: to `COc1cc(-c2cn(C)c(=O)c3cnccc23)cc(OC)c1CN(C)CCOCCn1cc(COc2ccc3c(c2)C(=O)N(C2CCC(=O)NC2=O)C3=O)nn1` (stereo not shown) [Compound D288] belongs less than 10 nM; to `COc1cc(-c2cn(C)c(=O)c3cnccc23)cc(OC)c1CN(C)CCOCCn1cc(COCCOc2ccc3c(c2)C(=O)N(C2CCC(=O)NC2=O)C3=O)nn1` (stereo not shown) [Compound D293], 10 to 100 nM. On the same count and under the same terms, the result for `COc1cc(-c2cn(C)c(=O)c3cnccc23)cc(OC)c1CN1CC(N2CCN(c3ccc4c(c3)C(=O)N(C3CCC(=O)NC3=O)C4=O)CC2)C1` (stereo not shown) [Compound D327] reads less than 10 nM. Still for that read-out and setting: to `COc1cc(-c2cn(C)c(=O)c3cnccc23)cc(OC)c1CN(C)CCN(C)CCNC(=O)COc1ccc2c(c1)C(=O)N(C1CCC(=O)NC1=O)C2=O` (stereo not shown) [DD2] belongs 100 to 1000 nM. With `COc1cc(-c2cn(C)c(=O)c3cnccc23)cc(OC)c1CN1CCC2C(C1)CN2C(=O)C#Cc1ccc2c(c1)C(=O)N(C1CCC(=O)NC1=O)C2=O` (stereo not shown) [Compound D242], the DC50 was less than 10 nM.

As to `COc1cc(-c2cn(C)c(=O)c3cnccc23)cc(OC)c1CN1CCC(n2cc([C@@H](C)Oc3ccc4c(c3)C(=O)N(C3CCC(=O)NC3=O)C4=O)nn2)CC1` (stereo partly shown) [Compound D319], the DC50 is less than 10 nM. Turning to `COc1cc(-c2cn(C)c(=O)c3cnccc23)cc(OC)c1CN1CCC(C(=O)N2CCC3(CC2)CC(Oc2ccc4c(c2)C(=O)N(C2CCC(=O)NC2=O)C4=O)C3)CC1` (stereo not shown) [Compound D221], the DC50 was less than 10 nM. Turning to `COc1cc(-c2cc(C)c(=O)n(C)c2)cc(OC)c1CN1CCC2C(C1)CN2c1ccc2c(c1)C(=O)N(C1CCC(=O)NC1=O)C2=O` (stereo not shown) [Compound D338], the DC50 was less than 10 nM. Still for that read-out and setting: to `COc1cc(-c2cn(C)c(=O)c3cnccc23)cc(OC)c1CN1CC(CC(=O)NC2CC3(CCN(c4ccc5c(c4)C(=O)N(C4CCC(=O)NC4=O)C5=O)CC3)C2)C1` (stereo not shown) [Compound D189] belongs less than 10 nM. For the compound `COc1cc(-c2cn(C)c(=O)c3cnccc23)cc(OC)c1CN1CCN(C(=O)CCC#Cc2ccc3c(c2)C(=O)N(C2CCC(=O)NC2=O)C3=O)CC1` (stereo not shown) [Compound D199], the DC50 is less than 10 nM. Still for that read-out and setting: to `CNC(=O)NCc1cc(-c2cc(OC)c(CN3CC(CN4CCC5(CC4)CN(c4ccc6c(c4)C(=O)N(C4CCC(=O)NC4=O)C6=O)C5)C3)c(OC)c2)cn(C)c1=O` (stereo not shown) [Compound D350] belongs 100 to 1000 nM.

Staying with this test, now noted: Table 5C; SYO-1 cells expressing 3×FLAG-NLuc-BRD9, 6 hours; read-out: SYO1 BRD9-NanoLuc degradation IC50.
For `COc1cc(-c2cc(C(F)F)c(=O)n(C)c2)cc(OC)c1CN1CCC2(C1)CN(c1ccc3c(c1)C(=O)N(C1CCC(=O)NC1=O)C3=O)C2` (stereo not shown) [Compound D406], the DC50 was less than 10 nM.

For the compound `COc1cc(-c2cn(C)c(=O)c3cn(OC)nc23)cc(OC)c1CN1CCC2(CC1)CN(c1ccc3c(c1)C(=O)N(C1CCC(=O)NC1=O)C3)C2` (stereo not shown) [Compound D462], the DC50 is less than 10 nM. Still for that read-out and setting: to `COc1cc(-c2cn(C)c(=O)cn2)cc(OC)c1CN1CCC2(CC1)CN(c1ccc3c(c1)C(=O)N(C1CCC(=O)NC1=O)C3)C2` (stereo not shown) [Compound D429] belongs more than 1000 nM; to `COc1cc(-c2cc(C)c(=O)n(C)c2C)cc(OC)c1CN1CCN(c2ccc3c(c2)C(=O)N(C2CCC(=O)NC2=O)C3)CC1` (stereo not shown) [Compound D427], less than 10 nM. Same read-out and setting: the result for `COc1cc(-c2cn(C)c(=O)c3cnccc23)cc(OC)c1CN1CCC2(CC1)CN(c1ccc3c(c1)C(=O)N(C1CCC(=O)NC1=O)C3=O)C2` (stereo not shown) [Compound D373] reads less than 10 nM; that for `C/C=C/Cn1cc(-c2ccc(CN3CCC4(CC3)CN(c3ccc5c(c3)C(=O)N(C3CCC(=O)NC3=O)C5)C4)c(Cl)c2)n2cncc2c1=O` (stereo not shown) [Compound D465], less than 10 nM. In the case of `COc1cc(-c2cn(C)c(=O)c(C)n2)cc(OC)c1CN1CCC2(CC1)CN(c1ccc3c(c1)C(=O)N(C1CCC(=O)NC1=O)C3)C2` (stereo not shown) [Compound D461], the DC50 was in the range of 10 to 100 nM.

Consider `COc1cc(-c2cn(C)c(=O)c3cnccc23)cc(OC)c1CN1CCC2(CC1)CN(c1ccc3c(c1)C(=O)N(C1CC(=O)NC(=O)C1)C3)C2` [Compound D474], for which the DC50 is more than 1000 nM. On the same count and under the same terms, the result for `COc1cc(-c2cn(C)c(=O)c3ccnn23)cc(OC)c1CN1CCC2(CC1)CN(c1ccc3c(c1)C(=O)N(C1CCC(=O)NC1=O)C3)C2` (stereo not shown) [Compound D456] reads less than 10 nM; that for `COc1cc(-c2cc(C)cc3ccccc23)cc(OC)c1CN1CCC(CN2CCC3(CC2)CC(Oc2ccc4c(c2)C(=O)N(C2CCC(=O)NC2=O)C4=O)C3)CC1` (stereo not shown) [DD11], more than 1000 nM; that for `COc1cc(-c2cn(C)c(=O)c3cnccc23)cc(OC)c1CN1CCC2(CC1)CN(c1ccc3c(c1)C(=O)N(C1CC(=O)NC1=O)C3=O)C2` (stereo not shown) [Compound D383], more than 1000 nM. Same read-out and setting: the result for `COc1cc(-c2cc(C)c(=O)n(C)c2)cc(OC)c1CN1CC(Cc2ccc3c(c2)C(=O)N(C2CCC(=O)NC2=O)C3)C1` (stereo not shown) [Compound D449] reads 10 to 100 nM. Still for that read-out and setting: to `COc1cc(-c2cn(C)c(=O)c3cnn(C)c23)cc(OC)c1CN1CCC2(CC1)CN(c1ccc3c(c1)CN(C1CCC(=O)NC1=O)C3=O)C2` (stereo not shown) [Compound D411] belongs less than 10 nM; to `CCc1cc(-c2cn(C)c(=O)c3cnccc23)cc(OC)c1CN1CC(Oc2ccc3c(c2)C(=O)N(C2CCC(=O)NC2=O)C3=O)C1C` (stereo not shown) [Compound D386], less than 10 nM.
